Laboratory results from patent US20090246152A1, “NARACTIN COMPOSITIONS FOR THE INHIBITION OF REACTIVE OXYGEN SPECIES” (Nu Skin International, Inc., priority 2008, published 2009).

Columns and labels:
arNOX [1] = assay: arNOX inhibition, superoxide-dependent reduction of ferric cytochrome c with serum or buffy coats (Table 1); assay type: biochemical; conditions: 25 μg/ml
Protocol: Superoxide Production By Buffy Coats: Buffy coats, a mixture of lymphocytes and platelets. Such buffy coats are commercially available from, for example, Rockland ImmunoChemicals (Gilbertsville, Pa.). The blood samples were maintained at 4° C. prior to collection and assay. Ca. 10^7 cells were added to each assay. Cell numbers were determined using a hemocytometer.
Reduction of ferric cytochrome c by superoxide was employed as a standard measure of superoxide formation (Mayo, L. A. and Cumutte, J. (1990) Meth. Enzyme. 186, 567-575. 7. Butler, J, Koppenol, W. H. and Margollash, E. (1982) J. Biol. Chem. 257, 10747). This is a widely accepted method when coupled to superoxide dismutase inhibition for the measurement of superoxide generation. The assay consists of 150 μl serum or 40 μl buffy coats in PBSG buffer (8.06 g NaCl, 0.2 g KCl, 0.18 g Na2HPO4, 0.26 g KH2PO4, 0.13 g CaCl2, 0.1 g MgCl2 1.35 g glucose dissolved in 1000 ml deionized water, adjusted to pH 7.4, filtered and stored at 4° C.) Rates were determined using an SLM Aminco DW-2000 spectrophotometer (Milton Roy, Rochester, N.Y., USA) in the dual wave length mode of operation with continuous measurements over 1 min every 1.5 min. After 45 min, test compounds were added and the reaction was continued for 45 min. After 45 min. a millimolar extinction coefficient of […] was used for reduced ferricytochrome c. Extracts were made of the compounds in water unless otherwise indicated.

arNOX [2] = assay: arNOX activity of saliva (person), ferricytochrome c reduction; assay type: biochemical, human; conditions: for arNOX inhibition (result in words): substance or extract alone; for inhibition of arNOX activity of saliva: 1 mg/ml, saliva from person; for augmentation of low activity N. tazetta powder: FIGS. 1a and 1b
Protocol: Of the mixture, 60 μl was added to at total of three ml of assay mixture containing saliva as the arNOX activity source.
The assay consists of 150 μl serum or 40 μl buffy coats in PBSG buffer (8.06 g NaCl, 0.2 g KCl, 0.18 g Na2HPO4, 0.26 g KH2PO4, 0.13 g CaCl2, 0.1 g MgCl2 1.35 g glucose dissolved in 1000 ml deionized water, adjusted to pH 7.4, filtered and stored at 4° C.) Rates were determined using an SLM Aminco DW-2000 spectrophotometer (Milton Roy, Rochester, N.Y., USA) in the dual wave length mode of operation with continuous measurements over 1 min every 1.5 min. After 45 min, test compounds were added and the reaction was continued for 45 min. After 45 min. a millimolar extinction coefficient of 19.1 cm^−1 was used for reduced ferricytochrome c. Extracts were made of the compounds in water unless otherwise indicated.

| SMILES | ArNOX ACTIVITY % OF NO ADDITION (arNOX [1]; Ethanol) [%] | arNOX inhibition (result in words) (arNOX [2]) | inhibition of arNOX activity of saliva (arNOX [2]) | augmentation of low activity N. tazetta powder (arNOX [2]) | further results |
| --- | --- | --- | --- | --- | --- |
| CC1=C(/C=C/C(C)=C/C=C/C(C)=C/C=C/C=C(C)/C=C/C=C(C)/C=C/C2=C(C)C(=O)[C@@H](O)CC2(C)C)C(C)(C)C[C@H](O)C1=O [Natural astaxanthin, astaxanthin] | 62 | – | – | – | – |
| CC(=O)Oc1ccccc1C(=O)O [aspirin, reference compound] | – | did not inhibit arNOX activity | – | – | – |
| O=C(O)c1ccccc1O [Salicylic acid, salicylic acid] | – | found to inhibit arNOX activity | about 50% | – | – |
| OCc1ccccc1O[C@@H]1O[C@H](CO)[C@@H](O)[C@H](O)[C@H]1O [salicin] | – | active as a single agent | – | notably decreased arNOX activity | augmentation of arNOX inhibition of mixtures of Schizandra chinensis powder and N. tazetta powder/extract (arNOX [2]; 1 mg/ml salicin, FIGS. 10a, 10b): active in augmenting the arNOX inhibition; active concentration relative to SHAM (Naractin 1) or salicylic acid (Naractin 2) (arNOX [2]; FIG. 9): active at a ten-fold lower concentration; concentration at which maximum inhibition of arNOX activity is achieved (arNOX [2]; saliva, FIG. 9): 1 mg/mL |
| O=C(NO)c1ccccc1O [SHAM, salicyl hydroxamate] | – | – | greater than 90% | notably decreased arNOX activity | arNOX activity after addition to N. tazetta powder extract (arNOX [2]; saliva of person, FIG. 1a): nearly complete inhibition; concentration at which inhibition of arNOX activity is largely complete (arNOX [2]; saliva, FIG. 7): 11 mg/mL |
| CC1=C(/C=C/C(C)=C/C=C/C(C)=C/C=C/C=C(C)/C=C/C=C(C)/C=C/C2=C(C)CCCC2(C)C)C(C)(C)CCC1 [β-Carotene] | 68 | – | – | – | ArNOX ACTIVITY % OF NO ADDITION (arNOX [1]; Water): 28% |
